Experimental data reported in ChEMBL document CHEMBL3826894, “Structural modification of luteolin from Flos Chrysanthemi leads to increased tumor cell growth inhibitory activity” (Bioorg Med Chem Lett, 2016).
pIC50, pKi: −log10 of the molar value.

What was measured:
[1] = biological target: T1, Bcl-2-like protein 1 (Homo sapiens, UniProt Q07817); test: Inhibition of Bcl-XL (unknown origin) using FAM-Bid peptide as substrate by fluorescence polarization-based assay
[2] = biological target: T2, Apoptosis regulator Bcl-2 (Homo sapiens, UniProt P10415); test: Inhibition of Bcl-2 (unknown origin) using FAM-Bid peptide as substrate at 50 uM by fluorescence polarization-based assay
T2 sequence (P10415 whole entry): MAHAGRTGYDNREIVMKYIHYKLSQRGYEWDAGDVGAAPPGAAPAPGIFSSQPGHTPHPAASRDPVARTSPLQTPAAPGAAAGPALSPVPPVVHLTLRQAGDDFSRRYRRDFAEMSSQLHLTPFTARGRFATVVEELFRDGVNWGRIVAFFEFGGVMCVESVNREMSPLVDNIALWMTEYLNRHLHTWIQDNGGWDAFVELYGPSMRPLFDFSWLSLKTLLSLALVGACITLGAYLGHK

[3] = Cytotoxicity against human HL60 cells assessed as reduction in cell viability after 72 hrs by MTT assay; type: functional, cell-based; conditions: HL-60, 72 h
[4] = biological target: T1, Bcl-2-like protein 1; test: Inhibition of Bcl-XL (unknown origin) using FAM-Bid peptide as substrate at 50 uM by fluorescence polarization-based assay
[5] = system: HEK293; test: Cytotoxicity against human HEK293 cells assessed as reduction in cell viability after 72 hrs by MTT assay; type: cell-based; conditions: HEK293, 72 h
[6] = Cytotoxicity against human HL60 cells assessed as inhibition of cell growth at 100 uM after 72 hrs by MTT assay; type: functional; conditions: HL-60, 72 h, read-out: GI
[7] = biological target: T2, Apoptosis regulator Bcl-2; test: Inhibition of Bcl-2 (unknown origin) using FAM-Bid peptide as substrate by fluorescence polarization-based assay

T1 sequence (Q07817 whole entry): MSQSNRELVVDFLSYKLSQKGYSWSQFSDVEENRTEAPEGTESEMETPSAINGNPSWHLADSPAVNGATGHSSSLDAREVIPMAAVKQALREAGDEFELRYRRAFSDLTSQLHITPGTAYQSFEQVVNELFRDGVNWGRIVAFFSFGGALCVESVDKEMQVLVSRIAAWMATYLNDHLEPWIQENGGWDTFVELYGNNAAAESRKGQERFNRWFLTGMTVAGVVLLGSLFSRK

SMILES | pKi [1] | inhibition [2] | pIC50 [3] | inhibition [4] | pIC50 [5] | inhibition of growth at 100 µM [6] | pKi [7]
Cc1cc2c(C(C)C)c(O)c(O)c(C=O)c2c(O)c1-c1c(C)cc2c(C(C)C)c(O)c(O)c(C=O)c2c1O [GOSSYPOL] | 6.51 | 100% | 5.18 | 100% | 4.96 | 92% | –
COc1cc(O)c2c(=O)cc(-c3cc(O)c(O)cc3Cc3cccc(Cl)c3)oc2c1 | – | – | 4.99 | – | – | 85.5% | –
COc1cc(O)c2c(=O)cc(-c3cc(O)c(O)c(Cc4cccc(Cl)c4)c3)oc2c1 | – | – | 5.53 | – | – | 85.2% | –
COc1cc(O)c2c(=O)cc(-c3cc(O)c(O)c(Cc4ccccc4C)c3)oc2c1 | – | – | 4.83 | – | – | 68.9% | –
O=c1cc(-c2cc(O)c(O)c(Cc3ccccc3)c2)oc2cc(O)cc(O)c12 | – | – | 4.36 | – | – | 78% | –
O=c1cc(-c2cc(O)c(O)cc2Cc2ccc(Cl)cc2)oc2cc(O)cc(O)c12 | – | – | 5.15 | – | – | 100% | –
COc1cc(O)c2c(=O)cc(-c3cc(O)c(O)cc3Cc3cccc(C)c3)oc2c1 | – | – | 5.00 | – | 4.13 | 86.1% | –
COc1cc(O)c2c(=O)cc(-c3cc(O)c(O)c(Cc4ccccc4)c3)oc2c1 | – | – | < 4.00 | – | – | 37.5% | –
Cc1ccc(Cc2cc(O)c(O)cc2-c2cc(=O)c3c(O)cc(O)cc3o2)cc1 | – | – | < 4.00 | – | – | 19.9% | –
Cc1ccc(Cc2cc(-c3cc(=O)c4c(O)cc(O)cc4o3)cc(O)c2O)cc1 | – | – | 4.00 | – | – | 49.1% | –
O=c1cc(-c2cc(O)c(O)c(Cc3ccc(Cl)cc3)c2)oc2cc(O)cc(O)c12 | – | – | < 4.00 | – | – | 48.6% | –
O=c1cc(-c2cc(O)c(O)cc2Cc2cccc(Cl)c2)oc2cc(O)cc(O)c12 | – | – | 4.19 | – | – | 65.2% | –
O=c1cc(-c2cc(O)c(O)c(Cc3cccc(Cl)c3)c2)oc2cc(O)cc(O)c12 | – | – | 4.54 | – | – | 76.4% | –
COc1cc(O)c2c(=O)cc(-c3cc(O)c(O)c(Cc4ccccc4Cl)c3)oc2c1 | – | – | 4.86 | – | – | 80.8% | –
Cc1cccc(Cc2cc(-c3cc(=O)c4c(O)cc(O)cc4o3)cc(O)c2O)c1 | – | – | 4.68 | – | – | 71.9% | –
O=c1cc(-c2cc(O)c(O)c(Cc3ccccc3Cl)c2)oc2cc(O)cc(O)c12 | – | – | < 4.00 | – | – | 30.6% | –
COc1cc(O)c2c(=O)cc(-c3cc(O)c(O)cc3Cc3ccccc3Cl)oc2c1 | – | – | 4.69 | – | – | 85.8% | –
O=c1cc(-c2cc(O)c(O)cc2Cc2ccccc2)oc2cc(O)cc(O)c12 | 5.08 | 96% | 4.44 | 70% | 4.04 | 80% | 5.34
COc1cc(O)c2c(=O)cc(-c3cc(O)c(O)cc3Cc3ccc(C)cc3)oc2c1 | – | – | 4.96 | – | – | 96.4% | –
Cc1ccccc1Cc1cc(-c2cc(=O)c3c(O)cc(O)cc3o2)cc(O)c1O | – | – | < 4.00 | – | – | 31.5% | –
COc1cc(O)c2c(=O)cc(-c3cc(O)c(O)cc3Cc3ccccc3)oc2c1 | 5.60 | 100% | 4.83 | 100% | – | 82% | 5.89
O=c1cc(-c2ccc(O)c(O)c2)oc2cc(O)cc(O)c12 [LUTEOLIN] | – | 46% | < 4.00 | 49% | – | 44% | –
O=c1cc(-c2cc(O)c(O)cc2Cc2ccccc2Cl)oc2cc(O)cc(O)c12 | – | – | 4.38 | – | – | 73.4% | –
COc1cc(O)c2c(=O)cc(-c3cc(O)c(O)cc3Cc3ccccc3C)oc2c1 | – | – | 4.83 | – | – | 90.2% | –
COc1cc(O)c2c(=O)cc(-c3cc(O)c(O)cc3Cc3ccc(Cl)cc3)oc2c1 | – | – | 4.93 | – | – | 92.1% | –
COc1cc(O)c2c(=O)cc(-c3cc(O)c(O)c(Cc4cccc(C)c4)c3)oc2c1 | – | – | 4.20 | – | – | 55% | –
